Assay results as given in patent US7767659B2, “Synthesis of naturally occurring ecteinascidins and related compounds” (Pharma Mar, S.A., priority 2002, dated 2010).

Tests used:
HT-29 = assay: cells; conditions: HT29, SRB, 48 hours exposure
How it was run: (§1)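 Colorimetric SRB read (490 nm) on triplicate wells after 48 h at 37 °C, 5% CO2. Dose range 10 to 10^−8 μg/ml; 5×10^3 cells/well pre-attached 18 h.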

A-549 = assay: cells; conditions: A549, SRB, 48 hours exposure
How it was run: as §1

LoVo = assay: cells; conditions: LOVO, SRB, 48 hours exposure
How it was run: as §1

DU-145 = assay: Inhibition of cells growth by colorimetric assay (SRB); conditions: DU145, SRB, 48 hours exposure
How it was run: as §1

SK-MEL-28 = assay: as above; conditions: MEL-28, SRB, 48 hours exposure
How it was run: as §1

HeLa = assay: as above; conditions: HELA, SRB, 48 hours exposure
How it was run: as §1

LoVo-Dox = assay: as above; conditions: LOVO-DOX, SRB, 48 hours exposure
How it was run: as §1

HeLa-APL = assay: as above; conditions: HELA-APL, SRB, 48 hours exposure
How it was run: as §1

IGROV-1 = assay: as above; conditions: IGROV, SRB, 48 hours exposure
How it was run: as §1

IGROV-ET = assay: as above; conditions: IGROV-ET, SRB, 48 hours exposure
How it was run: as §1

SK-BR-3 = assay: as above; conditions: SK-BR3, SRB, 48 hours exposure
How it was run: as §1

PANC-1 = assay: as above; conditions: PANC-1, SRB, 48 hours exposure
How it was run: as §1

K-562 = assay: as above; conditions: K562, SRB, 48 hours exposure
How it was run: as §1

LNCaP = assay: as above; conditions: LNCAP, SRB, 48 hours exposure
How it was run: as §1

COC1=C(C)C(=O)C2=C(C1=O)C1C3C4SCC(NC(C)=O)C(=O)OCC(c5c6c(c(C)c(OC(C)=O)c54)OCO6)N3C(O)C(C2)N1C (stereo not shown) [ET-637-quinone, ecteinascidin 637 quinone]
HT29 TGI (HT-29): 7.78E−09 Molar
GI50 (HT-29; read-out: HT29 GI50): 3.32 nM
CC50 (HT-29; read-out: HT29 LC50): 2260 nM
A549 TGI (A-549): 1.09E−08 Molar
GI50 (A-549; read-out: A549 GI50): 4.42 nM
CC50 (A-549; read-out: A549 LC50): 51.5 nM
LOVO TGI (LoVo): 8.51E−09 Molar
GI50 (LoVo; read-out: LOVO GI50): 3.98 nM
CC50 (LoVo; read-out: LOVO LC50): 6080 nM
DU145 TGI (DU-145): 6.30E−09 Molar
GI50 (DU-145; read-out: DU145 GI50): 3.74 nM
CC50 (DU-145; read-out: DU145 LC50): 15.3 nM
MEL-28 TGI (SK-MEL-28): 5.34E−09 Molar
GI50 (SK-MEL-28; read-out: MEL-28 GI50): 2.96 nM
CC50 (SK-MEL-28; read-out: MEL-28 LC50): 9.61 nM
HELA TGI (HeLa): 4.88E−09 Molar
GI50 (HeLa; read-out: HELA GI50): 2.24 nM
CC50 (HeLa; read-out: HELA LC50): 10.6 nM
LOVO-DOX TGI (LoVo-Dox): 9.62E−07 Molar
GI50 (LoVo-Dox; read-out: LOVO-DOX GI50): 262 nM
CC50 (LoVo-Dox; read-out: LOVO-DOX LC50): 90 nM
HELA-APL TGI (HeLa-APL): 5.12E−09 Molar
GI50 (HeLa-APL; read-out: HELA-APL GI50): 2.39 nM
CC50 (HeLa-APL; read-out: HELA-APL LC50): 10.9 nM
IGROV TGI (IGROV-1): 5.80E−09 Molar
GI50 (IGROV-1; read-out: IGROV GI50): 2.76 nM
CC50 (IGROV-1; read-out: IGROV LC50): 12.1 nM
IGROV-ET TGI (IGROV-ET): 6.91E−08 Molar
GI50 (IGROV-ET; read-out: IGROV-ET GI50): 34.2 nM
CC50 (IGROV-ET; read-out: IGROV-ET LC50): 139 nM
SK-BR3 TGI (SK-BR-3): 2.67E−09 Molar
CC50 (SK-BR-3; read-out: SK-BR3 LC50): 8.51 nM
PANC-1 TGI (PANC-1): 8.24E−09 Molar
GI50 (PANC-1; read-out: PANC-1 GI50): 3.72 nM
CC50 (PANC-1; read-out: PANC-1 LC50): 3.42 nM
K562 TGI (K-562): 1.97E−09 Molar
CC50 (K-562; read-out: K562 LC50): 14.4 nM
LNCAP TGI (LNCaP): 3.64E−09 Molar
GI50 (LNCaP; read-out: LNCAP GI50): 1.78 nM
CC50 (LNCaP; read-out: LNCAP LC50): 7.44 nM
